Measured values as given in PubChem BioAssay AID1981 (Southern Research Specialized Biocontainment Screening …, 2009).

Test system: S. Typhimurium PhoP-promoter GFP reporter counterscreen, fluorescence, 4 h
Test: S. Typhimurium GFP fluorescence dose response in modified counterscreen for PhoP regulon inhibitor project (AID 1981)

SMILES | IC50 [µM]
CNC(=S)N1CCN(c2c(F)cc3c(=O)c(C(=O)O)cn(C4CC4)c3c2OC)CC1C (centres undefined) | 15.2
CC(Cc1ccccc1)NCc1ccccc1O (centres undefined) | 63.8
O=C1c2ccccc2C(=O)N1c1cccc(-c2csc(Nc3ccc4c(c3)OCO4)n2)c1 | 128
CCCCCCCCCC[n+]1cccc2c3ccccc3ccc21 | 43.8
Oc1ccc(CN2CCN(Cc3ccccc3)CC2)c2cccnc12 | 59.2
OCCNCc1c(OCc2ccc(Cl)cc2)ccc2ccccc12 | 105
Oc1ccc(N=Cc2ccc(O)c(O)c2)cc1 | 67.6
CNc1cc(Cl)c2nonc2c1[N+](=O)[O-] | 115
CCc1ccc(NC(=O)C[n+]2cc(-c3ccc(C)cc3)n3c2CCC3)cc1 | 146
CC(C(=O)NC1C=CS(=O)(=O)C1)N1C(=O)/C(=C/c2ccc(Cl)cc2)SC1=S (centres undefined) | 141
COc1ccc(OCC(O)CNc2ccc(Br)cc2)cc1 (centres undefined) | 20
CCn1cc(C(=O)NCCCN(C)C)c(=O)c2cc(F)c(N3CCN(C)CC3)cc21 | 64.3
CCn1cc(C(=O)NCCN(C)C)c(=O)c2cc(F)c(N3CCN(C)CC3)cc21 | 123
CCn1cc(C(=O)O)c(=O)c2cc(F)c(N3CCN(C)CC3)cc21 | 1.46
O=C(N/N=C\c1cccc([N+](=O)[O-])c1O)C1COc2ccccc2O1 (centres undefined) | 96
CCN1CCN(C(c2cccnc2)c2cc(Cl)c3cccnc3c2O)CC1 (centres undefined) | 61.9
CCOc1ccc(Nc2nc(N)c3ccccc3n2)cc1 | 109
COc1cccc(N(C(=O)c2ccco2)c2nc(-c3sc(NC(=O)c4ccco4)nc3C)cs2)c1 | 126
O=[N+]([O-])c1cc(O)c2ncccc2c1 | 15.8
CC(C)Oc1ccc(Cc2cnc(N)nc2N)cc1 | 54.2
O=C(Nc1ccccc1)Oc1ccc[nH]c1=O | 80.6
COc1ccc(C(C[N+](=O)[O-])C2(c3ccc(OC)c(OC)c3)C(=O)c3ccccc3C2=O)cc1 (centres undefined) | 23.6
Oc1cccc2ccc(Nc3ccccn3)nc12 | 14.5
CN1CCc2c(sc(NC(=O)c3ccc([N+](=O)[O-])o3)c2C(N)=O)C1 | 33.7
CCn1cc(C(=O)O)c(=O)c2cc(F)c(N3CCN(C(=S)NC(=O)c4ccc(F)cc4)CC3)cc21 | 53.4
CCCC(=O)NC(c1ccc(N(C)C)cc1)c1ccc2cccnc2c1O (centres undefined) | 49.4
CCn1cc(C(=O)O)c(=O)c2cc(F)c(N3CCN(C(=S)Nc4ccccc4OC)CC3)cc21 | 22

SMILES | IC50 [µM]
CCn1cc(C(=O)O)c(=O)c2cc(F)c(N3CCN(C(=S)NC(=O)c4ccccc4C)CC3)cc21 | 22.2
CCCC(=O)NC(c1cccs1)c1cc([N+](=O)[O-])c2cccnc2c1O (centres undefined) | 30.1
Oc1ccc(CNc2ccccc2F)c2cccnc12 | 76.5
Nc1ccc(Nc2ccccc2)cc1 | 92.1
COC(=O)c1c(NC(=O)c2ccc([N+](=O)[O-])o2)sc2c1CCN(C(C)C)C2 | 55.8
O=C(CSc1nc2ccccc2s1)N/N=C/c1cc([N+](=O)[O-])ccc1O | 85.3
Cc1cc(NC(c2cccnc2)c2ccc3cccnc3c2O)no1 (centres undefined) | 130
Cc1ccc(C(=O)Sc2cccccc2=O)cc1 | 16.5
CC(C(=O)c1ccc(-c2ccccc2)cc1)[n+]1cccc(NC(=O)c2ccccc2)c1 (centres undefined) | 106
O=[N+]([O-])c1cc(/C=N/Nc2nc3ccccc3[nH]2)c(O)cc1O | 32.5
CC(C)COc1ccc(Cc2cnc(N)nc2N)cc1 | 127
CCCCCNCC(=O)Nc1cccc(C(=O)Nc2cccc(C(F)(F)F)c2)c1 | 135
CCn1cc(C(=O)NCC(C)C)c(=O)c2cc(F)c(N3CCN(C)CC3)cc21 | 72.6
O=C(Cc1ccccc1)Nc1cccc(N2C(=O)C=CC2=O)c1 | 142
COc1ccc(OC)c(C(=O)C2COC(=O)C2)c1 (centres undefined) | 134
CCn1cc(C(=O)NCCO)c(=O)c2cc(F)c(N3CCN(C)CC3)cc21 | 29.9
CCN(CC(=O)NC(C)(C)C)C(=O)COc1c(Cl)cc(Cl)c2ccc(C)nc12 | 136
COc1c(N2CCN(C(=S)NC3CC4CCC3C4)C(C)C2)c(F)cc2c(=O)c(C(=O)O)cn(C3CC3)c12 (centres undefined) | 5.38
Cc1nc2c(=O)n(C)c(=O)nc-2n(C)n1 | 0.6
COC(=O)C(C)NC(=S)N1CCN(c2c(F)cc3c(=O)c(C(=O)O)cn(C4CC4)c3c2OC)CC1C (centres undefined) | 60.6
CN1/C(=C\C=C\C2=[N+](C)c3ccc4ccccc4c3C2(C)C)C(C)(C)c2ccccc21 | 14.1
CN1CCN(C(c2ccc(Br)cc2)c2cc(Cl)c3cccnc3c2O)CC1 (centres undefined) | 24
CCCCCCCCn1c2c(c(=N)c3ccccc31)CCC2 | 78.7
O=C(N/N=C/c1cc([N+](=O)[O-])ccc1O)c1ccncc1 | 101
CCCCC(CC)CN=C(N)NC(N)=NCCCCCCN=C(N)NC(N)=NCC(CC)CCCC (centres undefined) | 5.47
COc1ccc(CNC[C@@H](CCCCN(C)Cc2ccc(OC)cc2)N2C[C@H](c3ccccc3)N(CCc3ccc(Cl)c(Cl)c3)C(=O)C2=O)cc1 | 108
C(=N\Nc1ccccn1)/c1cccnc1 | 62.2

SMILES | IC50 [µM]
CCCc1nnc(NC(=O)c2cn(CC)c3cc(N4CCN(C)CC4)c(F)cc3c2=O)s1 | 109
Oc1ccc(NCc2ccccc2OCc2ccccc2F)cc1 | 79.6
O=[N+]([O-])c1cc(F)c2cccnc2c1O | 9.5
CCn1cc(C(=O)O)c(=O)c2ccc(C)nc21 | 117
O=C(N/N=C/c1ccc(Sc2ccccn2)o1)c1cc2ccccc2cc1O | 110
COc1ccc(C(=O)Cn2nc(CNc3ccc(Br)cc3)[n+]3c2CCCCC3)cc1 | 106
CCOC(=O)Cc1csc(NC(=O)NC2(C(F)(F)F)Oc3cc(Cl)c(Cl)cc3O2)n1 | 67.8
CCCCCCCCCCCCCCCCn1cc[n+](CC(C)=O)c1 | 86.1
NC1=NC[C@H](Cc2ccccc2)N1CCCCC1CCCCC1 | 61.1
CN(C)c1ccc(O)c2c1CC1CC3C(N(C)C)C(=O)C(C(N)=O)=C(O)[C@@]3(O)C(=O)C1=C2O (some centres undefined) | 1.54
CN1CCN(C(c2ccc(C(F)(F)F)cc2)c2cc(Cl)c3cccnc3c2O)CC1 (centres undefined) | 30.2
O=C(N/N=C/c1ccc([N+](=O)[O-])o1)c1ccc(O)cc1 | 21
O=C(OCC1O[C@@H](OC(=O)c2cc(O)c(O)c(O)c2)[C@@H](OC(=O)c2cc(O)c(O)c(O)c2)[C@@H](OC(=O)c2cc(O)c(O)c(O)c2)[C@@H]1OC(=O)c1cc(O)c(O)c(O)c1)c1cc(O)c(O)c(O)c1 (some centres undefined) | 83.1
O=C(N/N=C/c1ccc(O)cc1O)C(=O)N/N=C/c1ccc(O)cc1O | 51
CCCCCCCSc1cc(OC)c(CCNC)cc1OC | 71.8
CCCCCCCCCn1c2c(c(=N)c3c1CCC3)CCCC2 | 53.8
CS(=O)(=O)c1ccc([C@@H](O)[C@@H](CO)NC(=O)C(Cl)Cl)cc1 | 63.7
C[C@H]1c2cccc(O)c2C(O)=C2C(=O)[C@]3(O)C(O)=C(C(N)=O)C(=O)[C@@H](N(C)C)[C@@H]3[C@@H](O)[C@@H]21 | 1.54
OC(c1cc(C(F)(F)F)nc2c(Cl)cc(Cl)cc12)C1CCCCN1 (centres undefined) | 133
CN1CCN(CCCN2c3ccccc3Sc3ccc(Cl)cc32)CC1 | 148
Cc1[nH]n(-c2ccccc2)c(=O)c1C(C[N+](=O)[O-])c1ccc(F)cc1 (centres undefined) | 109
CN(Cc1ccccc1)CC(O)COc1ccc(CNCc2ccc(Cl)s2)cc1 (centres undefined) | 117
C/C(=N\N=C(N)N)c1ccc(Cl)c(Cl)c1 | 92.6
Oc1c(Cl)cc(Cl)c2cccnc12 | 17.9
O=C1c2ccccc2C(=O)c2[nH]c(=O)[nH]c21 | 6.53
